How the values were obtained:
human ETA receptors = biological target: T1, human ETA receptors (Homo sapiens, UniProt P25101); assay: Inhibition of endothelin binding to recombinant ETA receptors; settings: 125I-endothelin, baculovirus-insect cell membranes, 20° C. 2 hours or 4° C. 24 hours
T1 construct: made in house; host or cells: baculovirus-infected insect cells
T1 sequence (P25101 21-427): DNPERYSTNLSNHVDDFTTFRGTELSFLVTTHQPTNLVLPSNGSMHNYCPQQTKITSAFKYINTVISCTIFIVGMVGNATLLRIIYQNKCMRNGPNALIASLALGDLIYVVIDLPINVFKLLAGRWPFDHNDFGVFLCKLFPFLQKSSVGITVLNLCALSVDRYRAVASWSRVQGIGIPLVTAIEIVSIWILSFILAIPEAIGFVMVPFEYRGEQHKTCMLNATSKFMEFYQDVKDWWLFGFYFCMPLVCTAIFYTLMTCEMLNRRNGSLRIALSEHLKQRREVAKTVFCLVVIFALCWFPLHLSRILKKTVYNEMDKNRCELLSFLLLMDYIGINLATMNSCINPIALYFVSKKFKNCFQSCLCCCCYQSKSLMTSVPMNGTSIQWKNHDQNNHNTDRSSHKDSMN
Method: I, Inhibition of endothelin binding to recombinant ETA receptors
A cDNA coding for human ETA receptors of human placenta was cloned (M. Adachi, Y.-Y. Yang, Y. Furuichi and C-Miyamoto, BBRC 180, 1265-1272) and expressed in the baculovirus-insect cell system. Baculovirus-infected insect cells from a 23 I fermentor are centrifuged off (3000×g, 15 minutes, 4° C.) 60 hours after the infection, re-suspended in Tris buffer (5 mM, pH 7.4, 1 mM MgCl2) and again centrifuged. After a further re-suspension and centrifugation the cells are suspended in 800 ml of the same buffer and freeze-dried at -120° C. The cells disintegrate when the suspension in this hypotonic buffer mixture is thawed. After a repeated freeze-drying/thawing cycle the suspension is homogenized and centrifuged (25000 x g, 15 minutes, 4° C.). After suspension in Tris buffer (75 mM, pH 7.4, 25 mM MgCl2, 250 mM sucrose) 1 ml aliquots (protein content about 3.5 mg/ml) are stored at -85° C.
(§1) For the binding assay, the freeze-dried membrane preparations are thawed and, after centrifugation at 20° C. and 25000 g for 10 minutes, re-suspended in assay buffer (50 mM Tris buffer pH 7.4, containing 25 mM MnCl2, 1 mM EDTA and 0.5% bovine serum albumin). 100 μl of this membrane suspension containing 5 μg of protein are incubated with 50 μl of ^125 I-endothelin (specific activity 2200 Ci/mMol) in assay buffer (25000 cpm, final concentration 20 μM) and 100 μl of assay buffer containing varying concentrations of test compound. The incubation is carried out at 20° C. for 2 hours or at 4° C. for 24 hours. The separation of free and membrane-bound radioligands is carried out by filtration over a glass fibre filter.
(§2) The inibitory activity on ETA and ETB receptors of compounds of formula I determined in these test procedures is given in Table 1 as the IC50, i.e. as the concentration [μM] which is required to inhibit 50% of the specific binding of ^125 I-endothelin.

ETB receptors = biological target: T2, ETB receptors (Homo sapiens, UniProt P24530); assay: Inhibition of endothelin binding to human placenta membranes (ETB receptors); settings: 125I-endothelin, 20° C. 2 hours or 4° C. 24 hours
T2 construct: Human placenta is homogenized in 5 mM Tris buffer; from tissue; host or cells: human placenta membranes
T2 sequence (P24530 27-442): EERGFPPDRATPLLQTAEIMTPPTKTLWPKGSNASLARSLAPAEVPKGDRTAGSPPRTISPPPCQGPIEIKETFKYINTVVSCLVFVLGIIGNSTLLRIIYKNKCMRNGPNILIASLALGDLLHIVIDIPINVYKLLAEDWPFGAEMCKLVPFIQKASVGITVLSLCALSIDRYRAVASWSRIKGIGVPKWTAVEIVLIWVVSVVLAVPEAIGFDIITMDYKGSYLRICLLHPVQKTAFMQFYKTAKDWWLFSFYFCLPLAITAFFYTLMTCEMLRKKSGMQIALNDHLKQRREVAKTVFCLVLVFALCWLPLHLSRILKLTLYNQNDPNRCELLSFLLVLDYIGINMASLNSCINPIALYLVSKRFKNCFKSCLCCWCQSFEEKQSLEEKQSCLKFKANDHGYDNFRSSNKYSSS
Method: II. Inhibition of endothelin binding to human placenta membranes (ETB receptors) (see Life Sci 44:1429 (1989))
Human placenta is homogenized in 5 mM Tris buffer, pH 7.4, which contains 1 mM MgCl2 and 250 mM sucrose. The homogenizate is centrifuged at 4° C. and 3000 g for 15 minutes, the supernatant containing the plasma membrane fraction is centrifuged at 72000 g for 30 minutes and the precipitate is washed with 75 mM Tris buffer, pH 7.4, which contains 25 mM MgCl2. Thereafter, precipitate obtained from in each case 10 g of original tissue is suspended in 1 ml of 75 mM Tris buffer, pH 7.4, containing 25 mM MgCl2 and 250 mM sucrose and freeze-dried at -20° C. in 1 ml aliquots.
as §1, with “Tris buffer,” for “Tris buffer”, “containing 35” for “containing 5”, “^125 I-endotheline” for “^125 I-endothelin”, “2200 (Ci/mMol)” for “2200 Ci/mMol)”, “20 pM)” for “20 μM)”
as §2

| SMILES | IC50 (human ETA receptors) [µM] | IC50 (ETB receptors) [µM] |
| --- | --- | --- |
| COc1cccc(Oc2c(NS(=O)(=O)c3ccc(C(C)(C)C)cc3)nc(C(=O)Nc3ccccc3)nc2OCCO)c1 [Example 6, 6-(4-tert.butyl-phenylsulphonylamino)-4-(2-hydroxy-ethoxy)-5-(3-methoxy-phenoxy)-pyrimidine-2-carboxylic acid phenylamide] | 38 | – |
| COc1ccc(Cl)c(Oc2c(NS(=O)(=O)c3ccc(C(C)(C)C)cc3)nc(C(=O)O)nc2OCCO)c1 [Example 2, 4-(4-tert.Butyl-phenylsulphonylamino)-5-(2-chloro-5-methoxy-phenoxy)-6-(2-hydroxy-ethoxy)-pyrimidine-2-carboxylic acid] | 1.83 | – |
| COc1ccccc1Oc1c(NS(=O)(=O)c2ccc(C(C)(C)C)cc2)nc(C(=O)O)nc1OCCO [Example 5, 6-(4-tert.butyl-phenylsulphonylamino)-4-(2-hydroxy-ethoxy)-5-(2-methoxy-phenoxy)-pyrimidine-2-carboxylic acid] | 16.4 | 0.29 |
| COc1ccc(S(=O)(=O)Nc2nc(C(=O)Nc3ccccc3)nc(OCCO)c2Oc2cccc(OC)c2)cc1 [Example 7, 4-(2-Hydroxy-ethoxy)-5-(3-methoxy-phenoxy)-6-(4-methoxy-phenylsulphonylamino)-pyrimidine-2-carboxylic acid phenylamide] | 18.2 | 0.3 |
| COc1cccc(Oc2c(NS(=O)(=O)c3ccc(C(C)(C)C)cc3)nc(C(=O)O)nc2OCCO)c1 [Example 1, 6-(4-tert.butyl-phenylsulphonylamino)-4-(2-hydroxy-ethoxy)-5-(3-methoxy-phenoxy)-pyrimidine-2-carboxylic acid] | 73 | 0.08 |

Other lines, results leading:

| IC50 (human ETA receptors) [µM] | IC50 (ETB receptors) [µM] | SMILES |
| --- | --- | --- |
| 13 | 0.06 | COc1ccccc1Oc1c(NS(=O)(=O)c2ccc(C(C)(C)C)cc2)nc(C(=O)Nc2ccccc2)nc1OCCO [Example 8, 6-(4-tert.Butyl-phenylsulphonylamino)-5-(2-methoxy-phenoxy)-4-(2-hydroxy-ethoxy)-pyrimidine-2-carboxylic acid phenylamide] |
| 21.4 | 0.086 | COc1ccc(Cl)c(Oc2c(NS(=O)(=O)c3ccc(C(C)(C)C)cc3)nc(C(=O)Nc3ccccc3)nc2OCCO)c1 [Example 9, 4-(4-tert.Butyl-phenylsulphonylamino)-5-(2-chloro-5-methoxy-phenoxy)-6-(2-hydroxy-ethoxy)-pyrimidine-2-carboxylic acid phenylamide] |
| 13 | 0.14 | COc1cccc(Oc2c(NS(=O)(=O)c3ccc(C(C)(C)C)cc3)nc(C(=O)Nc3nnn[nH]3)nc2OCCO)c1 [Example 10, 4-(4-tert.Butyl-phenylsulphonylamino)-6-(2-hydroxy-ethoxy)-5-(3-methoxy-phenoxy)-pyrimidine-2-carboxylic acid (1 H-tetrazol-5-yl)-amide] |

From patent US5856484A, “Sulfonylaminopyrimidine carboxylic acid derivatives having endothelin inhibiting activity” (Hoffmann-La Roche Inc., priority 1995, dated 1999)
